From US20110212100A1, “METHODS FOR MODULATING DEVELOPMENT AND EXPANSION OF IL-17 EXPRESSING CELLS” (priority 2007, published 2011) come the findings set out here.

Molecules are shown by their SMILES.

The subject of data set [1] is SV-MES mesangial cells. Kind of data set: Stress response in fibroblasts (eIF2α western blot). The format is cell-based. Particulars: 20 nM HF, 2 hours. Here is the method:
SV-MES mesangial cells were stimulated for 2 hours with DMSO, 20 nM MAZ1310 or 20 nM HF. Whole cell lysates were analyzed for expression of phosphorylated or total eIF2α or GCN2 by western blotting.
Western blotting: Whole cell lysates were generated from T cells activated for the indicated times. For STAT3 and Smad2/3 western blots cells were harvested, washed in PBS and lysed in 50 mM Tris, pH 7.4, 0.1% SDS, 1% Triton-X100, 140 mM NaCl, 1 mM EDTA, 1 mM EGTA supplemented with protease inhibitors tablets (Roche-Germany), 1 mM NaF and 1 mM Na3VO4. For eIF2α and ATF4 western blots, cells were harvested as above and lysed in 50 mM Tris, pH 7.4, 2% SDS, 20% glycerol and 2 mM EDTA supplemented with protease and phosphatase inhibitors as above. All lysates were cleared via centrifugation and 15-30 μg of protein was resolved by SDS-PAGE. Protein was transferred to nitrocellulose membranes, blocked and blotted using specific antibodies. Antibodies used for western blot analysis were anti-phospho-Smad2, anti-STAT3 (pY705), anti-STAT3, anti-eIF2α^pS51, anti-eIF2α, anti-GCN2^pT898, anti-GCN2 (all from cell signaling technology, Danvers, Mass.). Anti-ATF4/CREB2 and anti-β-actin were purchased from Santa Cruz biotechnology (Santa Cruz, Calif.). […]
For orientation: Immunoblotting shows a protein as a band on a membrane.

In data set [2] the test system is CD4+ CD25− T cells. Kind of data set: CD4+ T cell proliferation, CD25 upregulation, cytokine production and Th1/Th2/iTreg differentiation. It counts as cell-based, mouse. Here is the method:
The dose-response of HF on CD4+ T cell proliferation, activation (i.e. CD25 upregulation) and differentiation to Th1, Th2 and Th17 lineages were evaluated. Purified murine naïve CD4+ CD25− T cells were activated using anti-CD3 (0.3 μg/ml) and anti-CD28 (0.5 μg/ml) antibodies and varying amounts of HF was added to each T cell culture condition (1.25 nM-40 nM). CD4+ T cell proliferation was monitored by CFSE dilution on day 3-post activation and CD25 expression was evaluated by FACS staining 2 days after activation. For T cell differentiation experiments, naïve T cells were activated as above in the presence of Th1 (IL-12 (20 ng/ml) plus anti-IL-4 (10 μg/ml)), Th2 (IL-4 (50 ng/ml) plus anti-IFNγ (0.5 mg/ml)) or Th17 (TGFβ (3 ng/ml) plus IL-6 (30 ng/ml)) polarizing conditions plus titrating amounts of HF (1.25 nM-40 nM) or MAZ1310 (40 nM). The percentage of Th17 cells, (IL-17^+ IFNγ^−) was evaluated on day 3 following activation, whereas the abundance of Th1 cells (IFNγ^+ IL-4) and Th2 cells (IL-4^+ IFNγ^−) was determined 5 days following activation. All cytokine expression was determined by intracellular staining following PMA+Ionomycin+Brefeldin A re-stimulation and all data was normalized to control (MAZ1310)-treated cells. […] Biol., vol. 80:1-8 (2006).
Cytokines, antibodies and T cell culture: Purified CD4^+ CD25^− T cells were activated in vitro as previously described (I. M. Djuretic et al., Nat Immunol 8, 145 (2007)) using 0.3 μg/ml hamster anti-mouse CD3 (clone 145-2C11) (ATCC—Manassas, Va.) and 0.5 μg/ml hamster anti-mouse CD28 (BD Pharmingen, San Jose, Calif.). Activated cell cultures were differentiated using the following combinations of cytokines and antibodies: iTreg=recombinant human TGFβ1 (3 ng/ml; R&D systems, Minneapolis, Minn.), Th17βTGFβ1 (3 ng/ml) plus recombinant mouse IL-6 (30 ng/ml, R&D systems). Th1 and Th2 differentiation was performed as previously described. (I. M. Djuretic et al., Nat Immunol 8, 145 (2007)). Human IL-2 supernatant (National Cancer Institute) was used in culture at 0.01 U/ml and was added at 48 hours-post activation when T cells were split into tissue culture wells lacking CD3 and CD28 antibodies, with the exception of Th17 cultures that were maintained in the absence of IL-2. All reagents were added at the time of T cell activation and again at 48-hours post activation unless indicated otherwise. For some experiments, purified CD4^+ CD25^− T cells, CD8^+ T cells or B cells were labeled with 1 μM CFSE (Invitrogen) prior to activation in accordance with manufacturers instructions.
Detection of cytokine production: Cytokines secreted into media supernatant were measured using the mouse Th1/Th2 cytometric bead array (CBA, BD Pharmingen) in accordance with manufacturers instructions. […]

For data set [3], the system named is Jurkat T cells. Kind of data set: Apoptosis of Jurkat T cells (Annexin V / PI). It counts as cell-based. Particulars: 100 nM HF, 30 hours. The procedure:
The non-specific cytoxicity of HF in both normal and transformed T-cells at high doses was evaluated. Anti-CD3/anti-CD28 activated primary T cells were harvested 6 days after activation and cultured in the presence of IL-2 with or without HF (100 nM). As a positive control, some T cells were cultured without IL-2 to induce apoptosis (FIG. 3A). Jurkat T cells, a transformed T cell leukemia line, were cultured in complete medium with or without HF (100 nM) as indicated (FIG. 3B). Both primary and Jurkat T cells were cultured for 30 hours and programmed cell death, i.e. apoptosis, was determined by Annexin V staining and propidium iodide (PI) uptake and cells were analyzed by flow cytometry. The percent of apoptotic T cells at each time point was plotted and was defined as Annexin V^+ PI^−. […] In further experiments, titrating amounts of HF were added to primary T cells and apoptosis was determine as above at the indicated time points. At 100 nM HF, but not 30 nM or lower, generalized T-cell apoptosis was observed (FIG. 3C).

Take `O=C(CC1NCCCC1O)Cn1cnc2cc(Br)c(Cl)cc2c1=O` (racemic) [HF, 7-bromo-6-chloro-3-[3-(3-hydroxy-2-piperidinyl)-2-oxopropyl]-4(3H)-quinazolinone]: the “eIF2α phosphorylation in SV-MES mesangial cells, in words” value in data set [1] is “increased eIF2α phosphorylation”. Further, in data set [2] (CD4+ T cell, CD8+ T cell and B220+ B cell, listed as halofuginone), the “concentration inducing general inhibition of T and B cell activation, proliferation and effector function” value was in the range of 20 to 40 nM. Besides, the “effect on T cell proliferation, CD25 upregulation or production of IL-2, TNF or IFNγ, in words” value in data set [2] (low concentrations of HF (1-10 nM)) is “did not affect”. Besides, the “effect on Th1, Th2 or iTreg differentiation (IFNγ, IL-4 or Foxp3 expression), in words” value in data set [2] (low-dose HF) is “failed to modulate”. Further, in data set [3], the “apoptosis (Annexin V+ PI−) of Jurkat T cells, in words” value is listed as “caused significant apoptosis”.
